Our source for the IC50 values is patent US11459333B2, “Substituted pyrrolo[2,3-d]pyrimidines as JAK inhibitors” (Vimalan Biosciences, Inc., priority 2019, dated 2022).

Common to all, as to type: biochemical
One experiment has as its target JAK1 (Homo sapiens (Human), UniProt P23458). The experiment in a line: JAK/TYK2 Assay (Kinase Glo luminescence), JAK1. The note with it: 7.5 nM enzyme, 2 uM ATP, 30 uM IRS-1, 1 hr. How it is done: (§1) 10 mM test compound stock or 1 mM control compound stock (tofocitinib, ruxolitinib or staurosporine) in DMSO was diluted to 0.4 mM in DMSO. A 3-fold series dilution was then performed in DMSO to generate 10 different compound concentrations. The assay was carried out in 384-well white plate. 0.5 uL of 40× compound DMSO solution at different concentrations was mixed with 10 uL 2× enzyme prepared in reaction buffer (20 mM HEPES, 10 mM MgCl2, 0.01% Tween, 1 mM DTT, pH 7.5). 10 uL 2× substrate mixture prepared in reaction buffer was then added to start the reaction. A short spin was done to settle down all solutions to the bottom of the plate. Final concentrations of test compound in the reaction mixture were 10000, 3333, 1111, 370, 123, 41.2, 13.7, 4.57, 1.52 and 0.51 nM. Concentrations of control compound were ten times less. Enzymatic reaction was conducted at 25° C. for 1-2 hours. 10 uL of Kinase Glo Reagents was added to stop the reaction and generate the luminescent signal which was measured using Envision. Luminescence signal was inversely related to kinase activity. […] The mixture without any compound was the positive control.

The target of a further experiment is JAK2 (Homo sapiens (Human), UniProt O60674). The experiment in a line: JAK/TYK2 Assay (Kinase Glo luminescence), JAK2. The note with it: 0.8 nM enzyme, 2 uM ATP, 4 uM pEY, 1 hr. How it is done:
as §1
Background: Kinase-Glo reads ATP consumption through a luciferase reaction.

The target in another experiment is JAK3 (Homo sapiens (Human), UniProt P52333). The experiment in a line: JAK/TYK2 Assay (Kinase Glo luminescence), JAK3. The note with it: 1.5 nM enzyme, 2 uM ATP, 4 uM pEY, 1 hr. How it is done: as §1
Sequence of JAK3 (P52333 whole entry, species assumed): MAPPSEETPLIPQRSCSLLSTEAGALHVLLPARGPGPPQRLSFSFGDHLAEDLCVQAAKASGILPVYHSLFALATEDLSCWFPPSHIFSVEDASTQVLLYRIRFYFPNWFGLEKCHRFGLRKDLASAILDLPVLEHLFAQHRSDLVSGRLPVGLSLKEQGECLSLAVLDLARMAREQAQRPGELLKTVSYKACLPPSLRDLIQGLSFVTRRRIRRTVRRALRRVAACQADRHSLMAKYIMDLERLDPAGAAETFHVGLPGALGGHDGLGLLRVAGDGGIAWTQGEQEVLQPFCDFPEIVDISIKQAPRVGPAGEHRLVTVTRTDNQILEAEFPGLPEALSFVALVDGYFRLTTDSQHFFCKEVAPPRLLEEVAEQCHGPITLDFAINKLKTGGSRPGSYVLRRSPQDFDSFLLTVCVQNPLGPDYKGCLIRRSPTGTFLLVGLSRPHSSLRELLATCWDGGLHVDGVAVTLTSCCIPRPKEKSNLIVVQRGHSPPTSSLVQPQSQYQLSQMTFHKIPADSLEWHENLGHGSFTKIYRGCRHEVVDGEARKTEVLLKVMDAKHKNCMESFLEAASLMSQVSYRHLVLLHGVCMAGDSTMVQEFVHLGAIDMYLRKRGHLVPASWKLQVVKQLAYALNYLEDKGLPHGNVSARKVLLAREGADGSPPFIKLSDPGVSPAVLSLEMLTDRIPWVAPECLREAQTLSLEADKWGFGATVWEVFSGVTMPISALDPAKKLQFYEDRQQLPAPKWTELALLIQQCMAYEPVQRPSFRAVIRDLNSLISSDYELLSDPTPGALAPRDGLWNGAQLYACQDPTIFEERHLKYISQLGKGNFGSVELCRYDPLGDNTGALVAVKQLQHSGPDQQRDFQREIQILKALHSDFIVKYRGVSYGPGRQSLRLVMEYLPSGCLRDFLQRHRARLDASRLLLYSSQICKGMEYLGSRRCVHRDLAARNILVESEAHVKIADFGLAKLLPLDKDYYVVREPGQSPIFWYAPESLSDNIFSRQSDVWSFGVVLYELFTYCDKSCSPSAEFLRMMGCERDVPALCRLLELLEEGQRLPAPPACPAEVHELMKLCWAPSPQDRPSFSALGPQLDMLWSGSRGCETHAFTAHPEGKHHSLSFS
Another experiment addresses TYK2 (Homo sapiens (Human), UniProt P29597). The experiment in a line: JAK/TYK2 Assay (Kinase Glo luminescence), TYK2. The note with it: 9 nM enzyme, 2 uM ATP, 30 uM IRS-1, 1 hr. On the procedure: as §1

Sequence of TYK2 (P29597 whole entry, species assumed): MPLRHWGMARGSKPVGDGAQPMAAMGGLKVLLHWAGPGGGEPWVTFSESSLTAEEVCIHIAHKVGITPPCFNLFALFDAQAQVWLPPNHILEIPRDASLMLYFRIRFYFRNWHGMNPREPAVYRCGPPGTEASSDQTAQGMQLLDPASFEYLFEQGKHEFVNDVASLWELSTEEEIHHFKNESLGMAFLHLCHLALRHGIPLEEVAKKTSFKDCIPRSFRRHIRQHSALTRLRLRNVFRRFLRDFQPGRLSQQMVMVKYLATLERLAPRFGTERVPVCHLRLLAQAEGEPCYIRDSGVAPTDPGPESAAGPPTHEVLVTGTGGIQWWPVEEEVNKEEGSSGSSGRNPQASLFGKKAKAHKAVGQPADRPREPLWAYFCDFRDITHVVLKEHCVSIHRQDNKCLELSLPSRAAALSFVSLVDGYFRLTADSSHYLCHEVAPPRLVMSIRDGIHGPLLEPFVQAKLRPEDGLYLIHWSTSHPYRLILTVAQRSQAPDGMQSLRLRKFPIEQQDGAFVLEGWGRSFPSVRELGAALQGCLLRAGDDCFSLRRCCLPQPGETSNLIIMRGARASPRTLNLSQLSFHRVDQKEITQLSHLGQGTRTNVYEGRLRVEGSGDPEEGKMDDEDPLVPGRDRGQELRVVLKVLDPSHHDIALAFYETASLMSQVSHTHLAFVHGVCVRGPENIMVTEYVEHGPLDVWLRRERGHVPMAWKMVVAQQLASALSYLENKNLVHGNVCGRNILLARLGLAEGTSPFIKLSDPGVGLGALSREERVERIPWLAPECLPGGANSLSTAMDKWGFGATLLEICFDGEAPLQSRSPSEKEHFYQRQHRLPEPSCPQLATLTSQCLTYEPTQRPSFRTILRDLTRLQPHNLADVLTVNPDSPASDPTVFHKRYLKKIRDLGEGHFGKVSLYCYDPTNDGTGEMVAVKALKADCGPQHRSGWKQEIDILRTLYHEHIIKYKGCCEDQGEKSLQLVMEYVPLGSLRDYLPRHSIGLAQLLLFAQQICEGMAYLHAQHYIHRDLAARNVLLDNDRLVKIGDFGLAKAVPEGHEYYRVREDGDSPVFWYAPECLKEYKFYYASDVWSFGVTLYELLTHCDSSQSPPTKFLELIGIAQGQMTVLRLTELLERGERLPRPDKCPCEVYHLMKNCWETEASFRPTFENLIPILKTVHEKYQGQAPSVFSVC
Sequence of JAK1 (P23458 whole entry, species assumed): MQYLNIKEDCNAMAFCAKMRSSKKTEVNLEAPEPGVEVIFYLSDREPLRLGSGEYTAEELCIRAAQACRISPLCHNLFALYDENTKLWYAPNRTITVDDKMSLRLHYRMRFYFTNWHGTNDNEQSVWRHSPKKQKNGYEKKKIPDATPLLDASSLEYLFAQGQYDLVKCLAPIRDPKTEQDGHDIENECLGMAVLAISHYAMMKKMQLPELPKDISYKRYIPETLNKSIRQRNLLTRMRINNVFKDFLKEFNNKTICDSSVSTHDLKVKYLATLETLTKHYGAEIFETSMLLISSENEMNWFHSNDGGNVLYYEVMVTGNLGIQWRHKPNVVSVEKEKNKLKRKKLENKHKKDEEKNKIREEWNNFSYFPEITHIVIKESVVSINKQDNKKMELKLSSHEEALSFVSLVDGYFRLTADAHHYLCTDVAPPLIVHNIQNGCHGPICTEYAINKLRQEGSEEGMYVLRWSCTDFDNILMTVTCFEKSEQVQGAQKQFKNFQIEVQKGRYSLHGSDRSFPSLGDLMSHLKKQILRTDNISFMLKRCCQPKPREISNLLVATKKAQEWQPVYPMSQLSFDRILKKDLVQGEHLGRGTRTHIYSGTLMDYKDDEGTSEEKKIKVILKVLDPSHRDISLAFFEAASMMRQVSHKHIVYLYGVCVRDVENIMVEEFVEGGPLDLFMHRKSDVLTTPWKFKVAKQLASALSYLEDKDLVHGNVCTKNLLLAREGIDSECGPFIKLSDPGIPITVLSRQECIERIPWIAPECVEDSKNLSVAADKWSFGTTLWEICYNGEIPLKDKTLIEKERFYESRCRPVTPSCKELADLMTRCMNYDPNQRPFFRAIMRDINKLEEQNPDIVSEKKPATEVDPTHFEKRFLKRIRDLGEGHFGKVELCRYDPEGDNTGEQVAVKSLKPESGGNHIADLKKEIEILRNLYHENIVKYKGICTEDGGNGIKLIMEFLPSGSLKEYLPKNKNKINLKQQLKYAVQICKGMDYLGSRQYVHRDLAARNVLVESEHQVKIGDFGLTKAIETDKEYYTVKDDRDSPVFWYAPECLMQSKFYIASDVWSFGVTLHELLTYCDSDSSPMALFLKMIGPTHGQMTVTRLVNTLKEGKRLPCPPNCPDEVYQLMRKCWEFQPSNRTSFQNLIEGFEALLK
Sequence of JAK2 (O60674 whole entry, species assumed): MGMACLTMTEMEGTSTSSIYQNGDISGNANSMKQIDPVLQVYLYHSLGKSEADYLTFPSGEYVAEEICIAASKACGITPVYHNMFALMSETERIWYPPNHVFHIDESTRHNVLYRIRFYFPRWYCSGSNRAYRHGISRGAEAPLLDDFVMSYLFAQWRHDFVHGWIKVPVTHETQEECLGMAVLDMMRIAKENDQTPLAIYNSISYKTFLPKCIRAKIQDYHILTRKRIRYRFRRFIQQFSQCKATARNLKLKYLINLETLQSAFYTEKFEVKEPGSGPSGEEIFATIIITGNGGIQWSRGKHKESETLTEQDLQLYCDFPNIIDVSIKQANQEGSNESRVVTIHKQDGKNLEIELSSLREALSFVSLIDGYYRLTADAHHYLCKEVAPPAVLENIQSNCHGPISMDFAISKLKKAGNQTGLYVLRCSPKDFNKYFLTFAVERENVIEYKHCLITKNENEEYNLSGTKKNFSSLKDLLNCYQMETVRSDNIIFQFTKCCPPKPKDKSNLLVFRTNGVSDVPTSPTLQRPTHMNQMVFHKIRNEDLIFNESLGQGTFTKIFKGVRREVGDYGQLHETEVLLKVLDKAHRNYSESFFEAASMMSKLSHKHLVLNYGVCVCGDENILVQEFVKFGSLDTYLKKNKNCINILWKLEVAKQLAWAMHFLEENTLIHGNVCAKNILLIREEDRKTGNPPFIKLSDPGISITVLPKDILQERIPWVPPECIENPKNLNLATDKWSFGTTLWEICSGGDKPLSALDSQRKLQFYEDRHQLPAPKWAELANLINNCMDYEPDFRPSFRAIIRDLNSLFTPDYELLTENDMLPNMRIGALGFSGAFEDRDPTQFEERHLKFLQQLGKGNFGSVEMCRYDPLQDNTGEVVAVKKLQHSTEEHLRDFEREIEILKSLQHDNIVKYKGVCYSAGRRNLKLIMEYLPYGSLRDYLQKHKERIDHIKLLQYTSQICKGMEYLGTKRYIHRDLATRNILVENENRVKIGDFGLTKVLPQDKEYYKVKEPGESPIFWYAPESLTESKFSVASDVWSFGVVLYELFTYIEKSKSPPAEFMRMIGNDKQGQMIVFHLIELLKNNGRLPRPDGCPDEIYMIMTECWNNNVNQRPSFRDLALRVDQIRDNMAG

Take `CC[C@H](Cn1ccc2cnc(Nc3cnn(CC(=O)O[C@@H]4C[C@@H](C(=O)OC)N(C)C4)c3)nc21)C(C)C` [Compound 131, methyl (2S,4R)-4-(2-(4-((7-((S)-2-ethyl-3-methylbutyl)-7H-pyrrolo[2,3-d]pyrimidin-2-yl)amino)-1H-pyrazol-1-yl)acetoxy)-1-methylpyrrolidine-2-carboxylate]: the IC50 on JAK1, on JAK2, against JAK3 and against TYK2 was less than 100 nM in each case.

On to `CCOC(=O)[C@@H]1C[C@@H](OC(=O)Cn2cc(Nc3ncc4ccn(C[C@@H](CC)C(C)C)c4n3)cn2)CN1C` [Compound 133, ethyl (2S,4R)-4-(2-(4-((7-((S)-2-ethyl-3-methylbutyl)-7H-pyrrolo[2,3-d]pyrimidin-2-yl)amino)-1H-pyrazol-1-yl)acetoxy)-1-methylpyrrolidine-2-carboxylate], for which the 50% inhibitory concentration (IC50) against JAK1, against JAK2, at JAK3 and at TYK2 was less than 100 nM in each case.

Turning to `CC[C@H](Cn1ccc2cnc(Nc3cnn(CC(=O)O[C@@H]4C[C@@H](C(=O)OC(C)C)N(C)C4)c3)nc21)C(C)C` [Compound 134, isopropyl (2S,4R)-4-(2-(4-((7-((S)-2-ethyl-3-methylbutyl)-7H-pyrrolo[2,3-d]pyrimidin-2-yl)amino)-1H-pyrazol-1-yl)acetoxy)-1-methylpyrrolidine-2-carboxylate], the IC50 (as a rule, the concentration that inhibits the measured activity by half) at JAK1 was less than 100 nM; at JAK2 it was 100 to 1000 nM; on JAK3 it was 100 to 1000 nM; on TYK2 it was 100 to 1000 nM.

Regarding `CC[C@H](Cn1ccc2cnc(Nc3cnn(CC(=O)O[C@@H]4C[C@@H](C(=O)O)N(C)C4)c3)nc21)C(C)C` [Compound 135, (2S,4R)-4-(2-(4-((7-((S)-2-ethyl-3-methylbutyl)-7H-pyrrolo[2,3-d]pyrimidin-2-yl)amino)-1H-pyrazol-1-yl)acetoxy)-1-methylpyrrolidine-2-carboxylic acid], the 50% inhibitory concentration (IC50) against JAK1, at JAK2 and against TYK2 was 100 to 1000 nM in each case.
